For the experiment, the system named is CD2F1 mice, L1210 leukemia ip, survival T/C. Kind of experiment: NCI In Vivo Anticancer Drug Screen. Data for tumor model L1210 Leukemia (intraperitoneal) in CD2F1 (CDF1) mice. The conditions noted are these: higher = longer survival. In a few lines:
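Activity against a transplanted murine tumor was judged by comparing the compound group with a vehicle group. The outcome in the treated animals was divided by that in the controls.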

[1] abbreviates: endpoint: mean survival time, dose: 50.0 mg/kg/injection, schedule: Q04DX002 (ip), vehicle: saline with Tween-80.
The mark [2] stands for this setting: endpoint: mean survival time, dose: 100.0 mg/kg/injection, schedule: Q04DX002 (ip), vehicle: saline with Tween-80.
The mark [3] stands for this setting: endpoint: mean survival time, dose: 200.0 mg/kg/injection, schedule: Q04DX002 (ip), vehicle: saline with Tween-80.
The mark [4] stands for this setting: endpoint: mean survival time, dose: 100.0 mg/kg/injection, schedule: Q04DX003 (ip), vehicle: saline with Tween-80.
[5] abbreviates: endpoint: mean survival time, dose: 200.0 mg/kg/injection, schedule: Q04DX003 (ip), vehicle: saline with Tween-80.
The mark [6] stands for this setting: endpoint: mean survival time, dose: 400.0 mg/kg/injection, schedule: Q04DX003 (ip), vehicle: saline with Tween-80.

Inconclusive results and toxic doses are left out.

As to `O=C1C=CC(=O)N1c1ccc(Cl)cc1Br`, the T/C (endpoint: mean survival time, dose: 5.0 mg/kg/injection, schedule: Q04DX003 (ip), vehicle: saline with Tween-80) is 95 % of control; the T/C (endpoint: mean survival time, dose: 10.0 mg/kg/injection, schedule: Q04DX003 (ip), vehicle: saline with Tween-80) was 89 % of control; the T/C (endpoint: mean survival time, dose: 20.0 mg/kg/injection, schedule: Q04DX003 (ip), vehicle: saline with Tween-80) is 92 % of control.
As for `COc1cc(NC(=O)Nc2ccccc2Cl)c(OC)cc1Cl`, the T/C was 98 % of control (endpoint: mean survival time, dose: 25.0 mg/kg/injection, schedule: Q04DX002 (ip), vehicle: saline with Tween-80); 94 % of control under setting [1]; 102 % of control under setting [2].
With `CC(=O)OC1C(OC(C)=O)C(OC(C)=O)C(OS(C)(=O)=O)C(OC(=O)c2ccccc2)C1OC(C)=O` (configuration not stated), the T/C is, setting by setting: (endpoint: mean survival time, dose: 100.0 mg/kg/injection, schedule: Q01DX009 (ip), vehicle: Klucel (hydroxypropylcellulose) (HPC)) 96 % of control; (endpoint: mean survival time, dose: 200.0 mg/kg/injection, schedule: Q01DX009 (ip), vehicle: Klucel (hydroxypropylcellulose) (HPC)) 86 % of control; (endpoint: mean survival time, dose: 400.0 mg/kg/injection, schedule: Q01DX009 (ip), vehicle: Klucel (hydroxypropylcellulose) (HPC)) 91 % of control.
On to `O=S(=O)(O)Sc1ncnc2nc[nH]c12`, for which the T/C by setting is: (endpoint: mean survival time, dose: 10.0 mg/kg/injection, schedule: Q01DX009 (ip), vehicle: saline) 117 % of control; (endpoint: mean survival time, dose: 20.0 mg/kg/injection, schedule: Q01DX009 (ip), vehicle: saline) 112 % of control; (endpoint: mean survival time, dose: 320.0 mg/kg/injection, schedule: Q01DX009 (ip), vehicle: saline) 107 % of control; (endpoint: median survival time, dose: 37.5 mg/kg/injection, schedule: Q04DX003 (ip), vehicle: saline) 119 % of control; (endpoint: median survival time, dose: 100.0 mg/kg/injection, schedule: Q01DX009 (ip), vehicle: saline) 182 % of control; (endpoint: median survival time, dose: 200.0 mg/kg/injection, schedule: Q01DX009 (ip), vehicle: saline) 154 % of control. Further, where the note is “endpoint: median survival time, dose: 300.0 mg/kg/injection, schedule: Q04DX003 (ip), vehicle: saline”, the T/C was 166 % of control.
Consider `[CH3][Tl]([CH3])[Br]`, for which the T/C runs as follows: under setting [2], 100 % of control; under setting [3], 96 % of control; (endpoint: mean survival time, dose: 400.0 mg/kg/injection, schedule: Q04DX002 (ip), vehicle: saline with Tween-80) 96 % of control.
Take `CCCCOC(=S)S.[Zn+2]`: the T/C is 94 % of control under setting [4], 108 % of control under setting [5] and 89 % of control under setting [6].
For the molecule `CC(=O)NS(=O)(=O)c1ccc([NH-])cc1.CC(=O)NS(=O)(=O)c1ccc([NH-])cc1.[Cl][Pt+2][Cl]`, the T/C was 102 % of control (endpoint: mean survival time, dose: 25.0 mg/kg/injection, schedule: Q04DX003 (ip), vehicle: saline with Tween-80); 97 % of control (endpoint: mean survival time, dose: 50.0 mg/kg/injection, schedule: Q04DX003 (ip), vehicle: saline with Tween-80); 96 % of control under setting [4]; 94 % of control under setting [5]; 104 % of control under setting [6].
Turning to `CCOC1(OCC)C2C=CC1C(C#N)(C#N)C2(C#N)C#N`, the T/C runs as follows: (endpoint: mean survival time, dose: 75.0 mg/kg/injection, schedule: Q01DX001 (ip), vehicle: saline) 103 % of control; (endpoint: mean survival time, dose: 150.0 mg/kg/injection, schedule: Q01DX001 (ip), vehicle: saline) 104 % of control.
Turning to `CCNC1(c2ccccc2)CCCCC1`, the T/C (endpoint: mean survival time, dose: 25.0 mg/kg/injection, schedule: Q04DX003 (ip), vehicle: saline) was 105 % of control.
As to `C/C(CC(=O)Nc1ccccn1)=N\c1ccccn1`, the T/C under setting [4] was 96 % of control and the T/C under setting [5] was 94 % of control.
As to `NCC(OC1CCCCC1)C(Cl)(Cl)Cl` (configuration not stated), the T/C was 101 % of control under setting [4] and 93 % of control under setting [5].
In the case of `CC1(Br)C(C)(Br)C(C)(Br)C(C)(Br)C(C)(Br)C1(C)Br` (configuration not stated), the T/C (endpoint: mean survival time, dose: 100.0 mg/kg/injection, schedule: Q01DX001 (ip), vehicle: saline with Tween-80) was 96 % of control; the T/C (endpoint: mean survival time, dose: 200.0 mg/kg/injection, schedule: Q01DX001 (ip), vehicle: saline with Tween-80) is 101 % of control; the T/C (endpoint: mean survival time, dose: 400.0 mg/kg/injection, schedule: Q01DX001 (ip), vehicle: saline with Tween-80) is 101 % of control.
As for `CCCCCCCCCCCCCC[n+]1ccc(C#N)cc1`, the T/C is 97 % of control (endpoint: mean survival time, dose: 7.5 mg/kg/injection, schedule: Q01DX001 (ip), vehicle: saline); 100 % of control (endpoint: mean survival time, dose: 7.5 mg/kg/injection, schedule: Q01DX009 (ip), vehicle: saline); 92 % of control (endpoint: mean survival time, dose: 15.0 mg/kg/injection, schedule: Q01DX001 (ip), vehicle: saline); 103 % of control (endpoint: mean survival time, dose: 15.0 mg/kg/injection, schedule: Q01DX009 (ip), vehicle: saline); 100 % of control (endpoint: mean survival time, dose: 30.0 mg/kg/injection, schedule: Q01DX001 (ip), vehicle: saline); 107 % of control (endpoint: mean survival time, dose: 30.0 mg/kg/injection, schedule: Q01DX009 (ip), vehicle: saline).
As to `C=C1C2C(c3ccccc3)=CC(C1(C)C(Cl)Cl)C(C#N)(C#N)C2(C#N)C#N` (configuration not stated), the T/C is, setting by setting: under setting [1], 96 % of control; under setting [2], 108 % of control; under setting [3], 100 % of control.
For the molecule `O=S(=O)(Oc1ccccc1)c1ccc(Cl)cc1`, the T/C (endpoint: mean survival time, dose: 100.0 mg/kg/injection, schedule: Q01DX009 (ip), vehicle: saline with Tween-80) is 95 % of control; the T/C under setting [4] was 98 % of control; the T/C (endpoint: mean survival time, dose: 200.0 mg/kg/injection, schedule: Q01DX009 (ip), vehicle: saline with Tween-80) is 98 % of control; the T/C under setting [5] is 96 % of control; the T/C (endpoint: mean survival time, dose: 400.0 mg/kg/injection, schedule: Q01DX009 (ip), vehicle: saline with Tween-80) was 98 % of control; the T/C under setting [6] is 102 % of control.

The values above are taken from PubChem BioAssay AID256 (DTP/NCI, 2004).
